Data as given in patent publication US7906502B2, “2-azetidinone derivatives as cholesterol absorption inhibitors for the treatment of hyperlipidaemic conditions” (AstraZeneca AB, priority 2005, dated 2011).

Columns and labels:
[1] = Absorption in a Caco-2 cells model; assay type: in vitro ADME; conditions: human
Method: Absorption of the compounds of formula (I) was tested in a Caco-2 cells model (Gastroenterology 1989, 96, 736): […]

[2] = system: 14C-cholesterol absorption; assay: In vivo testing of cholesterol absorption inhibitors (A); design: species or system C57BL/6 female mice; conditions: 0.2 μmol/kg, gavage, procedure A, mice
Method: In vivo Testing of Cholesterol Absorption Inhibitors (A)
C57BL/6 female mice were maintained on regular chow diet and housed in individual cages to collect faeces. Mice were fasted for 3 hours and then gavaged with vehicle or compound. Half an hour later the mice were gavaged with radiolabelled cholesterol. Six hours after the ^14C-cholesterol gavage blood samples were taken via the tail and plasma prepared to determine how much cholesterol were absorbed. 24 hours after the gavage of ^14C-cholesterol the mice were bled and plasma were prepared for analysis. Faeces were collected for 24 hours to assess absorption efficiency.

Compound	Papp [1] [×10⁻⁶ cm/s]	inhibition of 14C-cholesterol absorption [2] [%]
O=C(COc1ccc([C@@H]2[C@@H](SCC(O)c3ccc4c(c3)OCO4)C(=O)N2c2ccc(F)cc2)cc1)NCC(=O)N[C@H](CC1CCCCC1)C(=O)O (single isomer, unassigned) [Example 13, N-({4-[(2R,3R)-3-{[(2R or S)-2-(1,3-benzodioxol-5-yl)-2-hydroxyethyl]thio}-1-(4-fluorophenyl)-4-oxoazetidin-2-yl]phenoxy}acetyl)glycyl-3-cyclohexyl-D-alanine]	0.05	
CC(C)(C)[C@@H](NC(=O)CNC(=O)COc1ccc([C@@H]2[C@@H](SCC(O)c3ccc4c(c3)OCCO4)C(=O)N2c2ccc(F)cc2)cc1)C(=O)O (stereo partly drawn) [Example 1, N-({4-[(2R,3R)-3-{[2-(2,3-dihydro-1,4-benzodioxin-6-yl)-2-hydroxyethyl]thio}-1-(4-fluorophenyl)-4-oxoazetidin-2-yl]phenoxy}acetyl)glycyl-3-methyl-D-valine]	0.02	61
CC(C)(C)[C@@H](NC(=O)CNC(=O)COc1ccc([C@@H]2[C@@H](SCC(O)c3ccc4c(c3)OCO4)C(=O)N2c2ccc(F)cc2)cc1)C(=O)O (stereo partly drawn) [Example 3, N-({4-[(2R,3R)-3-{[2-(1,3-Benzodioxol-5-yl)-2-hydroxyethyl]thio}-1-(4-fluorophenyl)-4-oxoazetidin-2-yl]phenoxy}acetyl)glycyl-3-methyl-D-valine]		67
